Laboratory results reported in ChEMBL document CHEMBL1201862, “PubChem BioAssay data set” (2004).
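In this assay, cells in 96-well plates receive the compound at five concentrations for 48 hours. Endpoints are linearly interpolated between the surrounding concentrations. GI50 is the concentration that inhibits growth by half.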 The source made the active and inactive calls. No stated cut-off is given here; in the data, active = GI50 up to about 1.1 µM and inactive = higher.

Columns and labels:
Test in all cases: DTP human tumour cell line panel, 48 h
HT-29 = system: HT-29
SF-295 = system: SF-295
BT-549 = system: BT-549
MDA-N = system: MDA-N
OVCAR-3 = system: OVCAR-3
MCF7 = system: MCF7
MOLT-4 = system: MOLT-4
SF-268 = system: SF-268
SK-OV-3 = system: SK-OV-3
SK-MEL-28 = system: SK-MEL-28
HL-60 = system: HL-60
CCRF-CEM = system: CCRF-CEM
SR = system: SR
UACC-62 = system: UACC-62
IGROV-1 = system: IGROV-1
Malme-3M = system: Malme-3M
HCT-116 = system: HCT-116
KM12 = system: KM12
NCI/ADR-RES = system: NCI/ADR-RES
SW-620 = system: SW-620

## Cc1c2cc[n+]([O-])cc2c(C)c2c1[nH]c1ccccc12
HT-29
  GI50: 3.57 µM (inactive)
SF-295
  GI50: 4.58 µM (inactive)
BT-549
  GI50: 9.64 µM (inactive)
MDA-N
  GI50: 4.15 µM (inactive)
OVCAR-3
  GI50: 12.5 µM (inactive)
MCF7
  GI50: 1.21 µM (inactive)
MOLT-4
  GI50: 998 nM (active)
SF-268
  GI50: 4.9 µM (inactive)
SK-OV-3
  GI50: 10.8 µM (inactive)
SK-MEL-28
  GI50: 37.8 µM (inactive)
HL-60
  GI50: 7.8 µM (inactive)
CCRF-CEM
  GI50: 2.88 µM (inactive)
SR
  GI50: 1.29 µM (inactive)
UACC-62
  GI50: 7.14 µM (inactive)
IGROV-1
  GI50: 6.89 µM (inactive)
Malme-3M
  GI50: 8.95 µM (inactive)
HCT-116
  GI50: 1.39 µM (inactive)
KM12
  GI50: 9.75 µM (inactive)
NCI/ADR-RES
  GI50: 20.8 µM (inactive)
SW-620
  GI50: 1.87 µM (inactive)
